Here are results for 11 compounds from PubChem BioAssay AID194 (DTP/NCI, 2004).

This assay concerns BDF1 mice, B16 melanoma s.c., survival/tumor T/C. As to the kind of experiment: NCI In Vivo Anticancer Drug Screen. Data for tumor model B16 Melanoma (subcutaneous) in B6D2F1 (BDF1) mice. How it is done: The antitumor activity of compounds was measured in mice bearing transplantable tumors. Survival or tumor size were measured and the results are expressed as the measurement made in the treated group (T) divided by the measurement made in the vehicle treated control group (C). The tumor model used in this assay is B16 Melanoma (subcutaneous) in B6D2F1 (BDF1) mice

Where [1] appears, read: endpoint: median survival time, dose: 15.0 mg/kg/injection, schedule: Q01DX009 (ip), vehicle: saline, higher = longer survival.
The mark [2] stands for this setting: endpoint: median survival time, dose: 30.0 mg/kg/injection, schedule: Q01DX009 (ip), vehicle: saline, higher = longer survival.
The mark [3] stands for this setting: endpoint: median survival time, dose: 64.0 mg/kg/injection, schedule: Q01DX009 (ip), vehicle: Klucel (hydroxypropylcellulose) (HPC), higher = longer survival.
[4] abbreviates: endpoint: median survival time, dose: 3.12 mg/kg/injection, schedule: Q01DX009 (ip), vehicle: Klucel (hydroxypropylcellulose) (HPC), higher = longer survival.
Where [5] appears, read: endpoint: median survival time, dose: 6.25 mg/kg/injection, schedule: Q01DX009 (ip), vehicle: Klucel (hydroxypropylcellulose) (HPC), higher = longer survival.
[6] abbreviates: endpoint: median survival time, dose: 12.5 mg/kg/injection, schedule: Q01DX009 (ip), vehicle: Klucel (hydroxypropylcellulose) (HPC), higher = longer survival.

“And” between values parts separate entries of the source, which are not always exact repeats. Equal entries are not always repeated. Records with an inconclusive call do not appear.

Regarding `CC(CN1CC(=O)NC(=O)C1)N1CC(=O)NC(=O)C1` (stereo not given), the T/C runs as follows: (endpoint: median survival time, dose: 6.25 mg/kg/injection, schedule: Q04DX003 (ip), vehicle: saline, higher = longer survival) 97 % of control; (endpoint: median survival time, dose: 8.0 mg/kg/injection, schedule: Q01DX009 (ip), vehicle: Klucel (hydroxypropylcellulose) (HPC), higher = longer survival) 113 % of control; (endpoint: median survival time, dose: 12.5 mg/kg/injection, schedule: Q04DX003 (ip), vehicle: saline, higher = longer survival) 97 % of control; under setting [1], 122 % of control; (endpoint: median survival time, dose: 16.0 mg/kg/injection, schedule: Q01DX009 (ip), vehicle: Klucel (hydroxypropylcellulose) (HPC), higher = longer survival) 118 % of control; (endpoint: median survival time, dose: 25.0 mg/kg/injection, schedule: Q04DX003 (ip), vehicle: saline, higher = longer survival) 102 % of control. Further, the T/C by setting is: under setting [2], 95 % of control; (endpoint: median survival time, dose: 50.0 mg/kg/injection, schedule: Q04DX003 (ip), vehicle: saline, higher = longer survival) 111 % of control; (endpoint: median survival time, dose: 60.0 mg/kg/injection, schedule: Q01DX009 (ip), vehicle: saline, higher = longer survival) 110 % of control; under setting [3], 119 % of control; (endpoint: median survival time, dose: 120.0 mg/kg/injection, schedule: Q01DX009 (ip), vehicle: saline, higher = longer survival) 109 % of control; (endpoint: median survival time, dose: 200.0 mg/kg/injection, schedule: Q04DX003 (ip), vehicle: saline, higher = longer survival) 105 % of control. Under “endpoint: median survival time, dose: 400.0 mg/kg/injection, schedule: Q04DX003 (ip), vehicle: saline, higher = longer survival”, the T/C is 120 % of control.
Consider `COc1cc(NS(C)(=O)=O)ccc1Nc1c2ccccc2nc2ccccc12`, for which the T/C is, setting by setting: (endpoint: median survival time, dose: 0.5 mg/kg/injection, schedule: Q01DX009 (ip), vehicle: other, higher = longer survival) 103 % of control; (endpoint: median survival time, dose: 1.0 mg/kg/injection, schedule: Q01DX009 (ip), vehicle: other, higher = longer survival) 98 % of control; (endpoint: median survival time, dose: 2.0 mg/kg/injection, schedule: Q01DX009 (ip), vehicle: other, higher = longer survival) 89 % of control; (endpoint: median survival time, dose: 2.0 mg/kg/injection, schedule: Q01DX009 (ip), vehicle: saline with Tween-80, higher = longer survival) 102 % of control; (endpoint: median survival time, dose: 3.0 mg/kg/injection, schedule: Q01DX009 (ip), vehicle: saline with Tween-80, higher = longer survival) 101 % of control; (endpoint: median survival time, dose: 4.5 mg/kg/injection, schedule: Q01DX009 (ip), vehicle: saline with Tween-80, higher = longer survival) 98 % of control. The T/C reads like this: (endpoint: median survival time, dose: 9.0 mg/kg/injection, schedule: Q04DX003 (ip), vehicle: saline with Tween-80, higher = longer survival) 89 % of control; (endpoint: median survival time, dose: 13.0 mg/kg/injection, schedule: Q04DX003 (ip), vehicle: saline with Tween-80, higher = longer survival) 108 % of control; (endpoint: median survival time, dose: 20.0 mg/kg/injection, schedule: Q01DX001 (ip), vehicle: saline with Tween-80, higher = longer survival) 101 % of control; (endpoint: median survival time, dose: 20.0 mg/kg/injection, schedule: Q04DX003 (ip), vehicle: saline with Tween-80, higher = longer survival) 98 % of control; (endpoint: median survival time, dose: 30.0 mg/kg/injection, schedule: Q01DX001 (ip), vehicle: saline with Tween-80, higher = longer survival) 107 % of control; (endpoint: median survival time, dose: 45.0 mg/kg/injection, schedule: Q01DX001 (ip), vehicle: saline with Tween-80, higher = longer survival) 107 % of control.
`O=C1C=CC(=O)N1c1ccc(Cl)cc1`: the T/C reads like this: (endpoint: median survival time, dose: 1.25 mg/kg/injection, schedule: Q01DX009 (ip), vehicle: Klucel (hydroxypropylcellulose) (HPC), higher = longer survival) 123 % of control; (endpoint: median survival time, dose: 5.0 mg/kg/injection, schedule: Q01DX009 (ip), vehicle: Klucel (hydroxypropylcellulose) (HPC), higher = longer survival) 102 % of control; (endpoint: median survival time, dose: 10.0 mg/kg/injection, schedule: Q01DX009 (ip), vehicle: Klucel (hydroxypropylcellulose) (HPC), higher = longer survival) 89 % of control; (endpoint: median survival time, dose: 20.0 mg/kg/injection, schedule: Q01DX009 (ip), vehicle: Klucel (hydroxypropylcellulose) (HPC), higher = longer survival) 98 % of control.
For `O=[N+]([O-])c1ccc(/C=N/c2ncc(Br)s2)o1`, the T/C by setting is: (endpoint: median survival time, dose: 1.56 mg/kg/injection, schedule: Q01DX009 (ip), vehicle: Klucel (hydroxypropylcellulose) (HPC), higher = longer survival) 123 % of control; under setting [4], 92 % of control; (endpoint: median survival time, dose: 3.13 mg/kg/injection, schedule: Q01DX009 (ip), vehicle: Klucel (hydroxypropylcellulose) (HPC), higher = longer survival) 121 % of control; under setting [5], 110 % of control and 111 % of control; under setting [6], 114 % of control.
For the compound `CC1=C(/C=C/C(C)=C/C=C/C(C)=C/CO)C(C)(C)CCC1`, the T/C reads like this: (endpoint: median survival time, dose: 4.0 mg/kg/injection, schedule: Q01DX009 (ip), vehicle: saline with Tween-80, higher = longer survival) 102 % of control; (endpoint: median survival time, dose: 8.0 mg/kg/injection, schedule: Q01DX009 (ip), vehicle: saline with Tween-80, higher = longer survival) 94 % of control; (endpoint: median survival time, dose: 16.0 mg/kg/injection, schedule: Q01DX009 (ip), vehicle: saline with Tween-80, higher = longer survival) 101 % of control and 117 % of control; (endpoint: median survival time, dose: 32.0 mg/kg/injection, schedule: Q01DX009 (ip), vehicle: saline with Tween-80, higher = longer survival) 100 % of control and 102 % of control; (endpoint: median survival time, dose: 64.0 mg/kg/injection, schedule: Q01DX009 (ip), vehicle: saline with Tween-80, higher = longer survival) 92 % of control.
Turning to `CCO/C=C1\SC(=S)N(c2ccc(C(=O)O)cc2)C1=O`, the T/C by setting is: under setting [4], 110 % of control; under setting [5], 101 % of control; under setting [6], 118 % of control; (endpoint: median survival time, dose: 50.0 mg/kg/injection, schedule: Q01DX009 (ip), vehicle: Klucel (hydroxypropylcellulose) (HPC), higher = longer survival) 121 % of control; (endpoint: median survival time, dose: 100.0 mg/kg/injection, schedule: Q01DX009 (ip), vehicle: Klucel (hydroxypropylcellulose) (HPC), higher = longer survival) 121 % of control.
For the compound `O=NN(CCF)C(=O)NCCO`, the T/C runs as follows: (endpoint: median survival time, dose: 3.11 mg/kg/injection, schedule: Q01DX007 (ip), vehicle: water, higher = longer survival) 98 % of control; (endpoint: median survival time, dose: 5.18 mg/kg/injection, schedule: Q01DX007 (ip), vehicle: water, higher = longer survival) 112 % of control; (endpoint: median survival time, dose: 8.64 mg/kg/injection, schedule: Q01DX007 (ip), vehicle: water, higher = longer survival) 123 % of control.
Take `Cc1c(N)nc(C(CC(N)=O)NCC(N)C(N)=O)nc1C(=O)NC(C(=O)NC(C)C(O)C(C)C(=O)NC(C(=O)NCCc1nc(-c2nc(C(=O)NCCCNC(C)c3ccccc3)cs2)cs1)C(C)O)C(OC1OC(CO)C(O)C(O)C1OC1OC(CO)C(O)C(OC(N)=O)C1O)c1cnc[nH]1` (stereo not given): the T/C (endpoint: median survival time, dose: 0.13 mg/kg/injection, schedule: Q01DX010 (ip), vehicle: water, higher = longer survival) is 97 % of control; the T/C (endpoint: median survival time, dose: 0.25 mg/kg/injection, schedule: Q01DX009 (ip), vehicle: water, higher = longer survival) is 105 % of control and 120 % of control; the T/C (endpoint: median survival time, dose: 0.25 mg/kg/injection, schedule: Q01DX010 (ip), vehicle: water, higher = longer survival) was 97 % of control; the T/C (endpoint: median survival time, dose: 0.5 mg/kg/injection, schedule: Q01DX009 (ip), vehicle: water, higher = longer survival) was 100 % of control; the T/C (endpoint: median survival time, dose: 0.5 mg/kg/injection, schedule: Q01DX010 (ip), vehicle: water, higher = longer survival) is 124 % of control; the T/C (endpoint: median survival time, dose: 1.0 mg/kg/injection, schedule: Q01DX009 (ip), vehicle: water, higher = longer survival) is 184 % of control. In addition, the T/C reads like this: (endpoint: median survival time, dose: 1.0 mg/kg/injection, schedule: Q01DX010 (ip), vehicle: water, higher = longer survival) 112 % of control; (endpoint: median survival time, dose: 2.0 mg/kg/injection, schedule: Q01DX010 (ip), vehicle: water, higher = longer survival) 112 % of control; (endpoint: median survival time, dose: 4.0 mg/kg/injection, schedule: Q01DX010 (ip), vehicle: water, higher = longer survival) 98 % of control; (endpoint: median survival time, dose: 8.0 mg/kg/injection, schedule: Q01DX009 (ip), vehicle: water, higher = longer survival) 106 % of control.
Turning to `CCOc1ccc2nc(S(N)(=O)=O)sc2c1`, the T/C is 121 % of control (endpoint: median survival time, dose: 3.75 mg/kg/injection, schedule: Q01DX009 (ip), vehicle: saline, higher = longer survival); 123 % of control (endpoint: median survival time, dose: 7.5 mg/kg/injection, schedule: Q01DX009 (ip), vehicle: saline, higher = longer survival); 121 % of control under setting [1]; 95 % of control under setting [2].
Regarding `CO[C@@]12[C@H](COC(N)=O)C3=C(C(=O)C(C)=C(N)C3=O)N1C[C@@H]1N[C@@H]12`, the T/C was 95 % of control (endpoint: median survival time, dose: 0.25 mg/kg/injection, schedule: Q01DX009 (ip), vehicle: Klucel (hydroxypropylcellulose) (HPC), higher = longer survival); 110 % of control (endpoint: median survival time, dose: 0.5 mg/kg/injection, schedule: Q01DX009 (ip), vehicle: Klucel (hydroxypropylcellulose) (HPC), higher = longer survival); 154 % of control (endpoint: median survival time, dose: 2.0 mg/kg/injection, schedule: Q01DX009 (ip), vehicle: Klucel (hydroxypropylcellulose) (HPC), higher = longer survival); 77 % of control (endpoint: median tumor weight (est.), dose: 0.25 mg/kg/injection, schedule: Q01DX009 (ip), vehicle: saline, higher = larger tumour); 101 % of control (endpoint: median tumor weight (est.), dose: 0.5 mg/kg/injection, schedule: Q01DX009 (ip), vehicle: saline, higher = larger tumour); 70 % of control (endpoint: median tumor weight (est.), dose: 1.0 mg/kg/injection, schedule: Q01DX009 (ip), vehicle: saline, higher = larger tumour). Where the note is “endpoint: median tumor weight (est.), dose: 2.0 mg/kg/injection, schedule: Q01DX009 (ip), vehicle: saline, higher = larger tumour”, the T/C was 30 % of control.
Take `Cc1cc2oc(=O)c3c(c2c(O)c1CN1CCN(C)CC1)CCCC3`: the T/C was 110 % of control under setting [3] and 113 % of control (endpoint: median survival time, dose: 128.0 mg/kg/injection, schedule: Q01DX009 (ip), vehicle: Klucel (hydroxypropylcellulose) (HPC), higher = longer survival).
